From ChEMBL document CHEMBL1128108, “Synthesis and antitumor activity of camptothecin derivatives bearing five-membered heterocycle containing 10-substituents” (1995)
In brackets after ≈: the same amount, converted by molar mass.

Experiments:
Format in all cases: functional
[1] = tested on: MCF7; test: In vitro cytotoxicity assay was measured against human tumor MCF-7 cell line using camptothecin as a standard; conditions: read-out: TD50 (the source's name)
[2] = tested on: KB; test: In vitro cytotoxicity assay was measured against human tumor KB cell line using camptothecin as a standard; conditions: read-out: TD50 (the source's name)
[3] = tested on: HCT-116; test: In vitro cytotoxicity assay was measured against human tumor HCT116 cell line using camptothecin as a standard; conditions: read-out: TD50 (the source's name)
[4] = tested on: L1210/Adr; test: In vitro cytotoxicity assay was measured against human tumor L1210/Adr cell line using camptothecin as a standard; conditions: Mus musculus, read-out: TD50 (the source's name)
[5] = tested on: L1210; test: In vitro cytotoxicity assay was measured against human tumor L1210 cell line using camptothecin as a standard; conditions: Mus musculus, read-out: TD50 (the source's name)
[6] = tested on: HCT-116; test: In vitro cytotoxicity assay was measured against human tumor HCT116 cell line; conditions: read-out: TD50 (the source's name)
[7] = tested on: L1210/Adr; test: In vitro cytotoxicity assay was measured against human tumor L1210/Adr cell line; conditions: Mus musculus, read-out: TD50 (the source's name)
[8] = tested on: KB; test: In vitro cytotoxicity assay was measured against human tumor KB cell line; conditions: read-out: TD50 (the source's name)
[9] = tested on: L1210; test: In vitro cytotoxicity assay was measured against human tumor L1210 cell line; conditions: Mus musculus, read-out: TD50 (the source's name)
[10] = tested on: MCF7; test: In vitro cytotoxicity assay was measured against human tumor MCF-7 cell line; conditions: read-out: TD50 (the source's name)

## CCC1(O)C(=O)OCc2c1cc1n(c2=O)Cc2cc3cc(OCCNC(=O)/C=C/c4ccco4)ccc3nc2-1 (stereo not given)
[1]
  CC50: 1 µg/mL (≈ 1900 nM)
[2]
  CC50: 83 ng/mL (≈ 157 nM)
[3]
  CC50: 65 ng/mL (≈ 123 nM)
[4]
  CC50: 0.14 µg/mL (≈ 265 nM)
[5]
  CC50: 50 ng/mL (≈ 94.8 nM)

## CCC1(O)C(=O)OCc2c1cc1n(c2=O)Cc2cc3cc(OCCNC(=O)C4CCCO4)ccc3nc2-1 (stereo not given)
[1]
  CC50: 0.9 µg/mL (≈ 1780 nM)
[2]
  CC50: 69 ng/mL (≈ 136 nM)
[3]
  CC50: 55 ng/mL (≈ 109 nM)
[4]
  CC50: 0.32 µg/mL (≈ 633 nM)
[5]
  CC50: 50 ng/mL (≈ 98.9 nM)

## CCC1(O)C(=O)OCc2c1cc1n(c2=O)Cc2cc3cc(OCCNC(=O)c4cccn4C)ccc3nc2-1 (stereo not given)
[1]
  CC50: 0.14 µg/mL (≈ 272 nM)
[2]
  CC50: 0.5 ng/mL (≈ 0.972 nM)
[3]
  CC50: 0.01 ng/mL (≈ 0.0194 nM)
[4]
  CC50: 0.00095 µg/mL (≈ 1.85 nM)
[5]
  CC50: 0.2 ng/mL (≈ 0.389 nM)

## CCC1(O)C(=O)OCc2c1cc1n(c2=O)Cc2cc3cc(OCCNC(=O)c4cccs4)ccc3nc2-1 (stereo not given)
[1]
  CC50: 0.068 µg/mL (≈ 131 nM)
[2]
  CC50: 0.5 ng/mL (≈ 0.966 nM)
[3]
  CC50: 0.04 ng/mL (≈ 0.0773 nM)
[4]
  CC50: 0.0015 µg/mL (≈ 2.9 nM)
[5]
  CC50: 0.1 ng/mL (≈ 0.193 nM)

## CC[C@@]1(O)C(=O)OCc2c1cc1n(c2=O)Cc2cc3ccccc3nc2-1 [CAMPTOTHECIN]
[6]
  CC50: 6 ng/mL (≈ 17.2 nM)
[7]
  CC50: 0.045 µg/mL (≈ 129 nM)
[8]
  CC50: 8 ng/mL (≈ 23 nM)
[9]
  CC50: 0.01 µg/mL (≈ 28.7 nM)
[10]
  CC50: 0.01 µg/mL (≈ 28.7 nM)

## COc1cccc2c1C(=O)c1c(O)c3c(c(O)c1C2=O)C[C@@](O)(C(=O)CO)C[C@@H]3O[C@H]1C[C@H](N)[C@H](O)[C@H](C)O1 [DOXORUBICIN]
[1]
  CC50: 0.15 µg/mL (≈ 276 nM)
[2]
  CC50: 15 ng/mL (≈ 27.6 nM)
[3]
  CC50: 30 ng/mL (≈ 55.2 nM)
[4]
  CC50: 0.4 µg/mL (≈ 736 nM)
[5]
  CC50: 6 ng/mL (≈ 11 nM)

## CCC1(O)C(=O)OCc2c1cc1n(c2=O)Cc2cc3cc(OCCNC(=O)c4ccc[nH]4)ccc3nc2-1 (stereo not given)
[1]
  CC50: 0.26 µg/mL (≈ 519 nM)
[2]
  CC50: 0.4 ng/mL (≈ 0.799 nM)
[3]
  CC50: 0.01 ng/mL (≈ 0.02 nM)
[4]
  CC50: 0.001 µg/mL (≈ 2 nM)
[5]
  CC50: 0.1 ng/mL (≈ 0.2 nM)

## CCC1(O)C(=O)OCc2c1cc1n(c2=O)Cc2cc3cc(OCCNC(=O)S(=O)(=O)c4cccs4)ccc3nc2-1 (stereo not given)
[1]
  CC50: 0.1 µg/mL (≈ 172 nM)
[2]
  CC50: 0.5 ng/mL (≈ 0.86 nM)
[3]
  CC50: 0.01 ng/mL (≈ 0.0172 nM)
[4]
  CC50: 0.0001 µg/mL (≈ 0.172 nM)
[5]
  CC50: 0.085 ng/mL (≈ 0.146 nM)

## CCC1(O)C(=O)OCc2c1cc1n(c2=O)Cc2cc3cc(OCCNC(=O)c4nccn4COC)ccc3nc2-1 (stereo not given)
[1]
  CC50: 0.75 µg/mL (≈ 1370 nM)
[2]
  CC50: 7 ng/mL (≈ 12.8 nM)
[3]
  CC50: 3 ng/mL (≈ 5.5 nM)
[4]
  CC50: 0.01 µg/mL (≈ 18.3 nM)
[5]
  CC50: 2 ng/mL (≈ 3.67 nM)

## CCC1(O)C(=O)OCc2c1cc1n(c2=O)Cc2cc3cc(OCCNC(=O)c4ccco4)ccc3nc2-1 (stereo not given)
[1]
  CC50: 0.82 µg/mL (≈ 1640 nM)
[2]
  CC50: 5 ng/mL (≈ 9.97 nM)
[3]
  CC50: 1 ng/mL (≈ 1.99 nM)
[4]
  CC50: 0.015 µg/mL (≈ 29.9 nM)
[5]
  CC50: 4 ng/mL (≈ 7.98 nM)

## CCC1(O)C(=O)OCc2c1cc1n(c2=O)Cc2cc3cc(OCCNC(=O)c4cccn4COC)ccc3nc2-1 (stereo not given)
[1]
  CC50: 0.12 µg/mL (≈ 220 nM)
[2]
  CC50: 5 ng/mL (≈ 9.18 nM)
[3]
  CC50: 0.7 ng/mL (≈ 1.29 nM)
[4]
  CC50: 0.015 µg/mL (≈ 27.5 nM)
[5]
  CC50: 1 ng/mL (≈ 1.84 nM)
